According to the NIST ThermoML archive (doi:10.1021/je4005323):
Numbers after ± are expanded uncertainties.

Settings: Liquid; for speed of sound: Pulse-echo method; for mass density: Vibrating tube method

SMILES: CCCCCCCC/C=C\CCCCCCCC(=O)OC [methyl cis-9-octadecenoate]
- speed of sound (343.15 K, 80000 kPa): 1575.4 ± 3.4 m/s
- mass density (343.15 K, 80000 kPa): 884.4 ± 0.7 kg/m3
- speed of sound (343.15 K, 90000 kPa): 1609.4 ± 3.5 m/s
- mass density (343.15 K, 90000 kPa): 889 ± 0.8 kg/m3
- speed of sound (343.15 K, 100000 kPa): 1641.6 ± 5.1 m/s
- mass density (343.15 K, 100000 kPa): 893.4 ± 0.8 kg/m3
- speed of sound (343.15 K, 110000 kPa): 1672.6 ± 5.2 m/s
- speed of sound (343.15 K, 120000 kPa): 1701.9 ± 5.3 m/s
- speed of sound (343.15 K, 130000 kPa): 1729.9 ± 5.4 m/s
- speed of sound (343.15 K, 140000 kPa): 1757.3 ± 5.5 m/s
- speed of sound (343.15 K, 150000 kPa): 1783.8 ± 5.5 m/s
- speed of sound (343.15 K, 160000 kPa): 1809.7 ± 5.6 m/s
- speed of sound (343.15 K, 170000 kPa): 1834.3 ± 5.7 m/s
- speed of sound (343.15 K, 180000 kPa): 1859.7 ± 5.8 m/s
- speed of sound (343.15 K, 190000 kPa): 1883.4 ± 5.8 m/s
- speed of sound (343.15 K, 200000 kPa): 1905.8 ± 5.9 m/s
- mass density (353.15 K, 101.3 kPa): 830.4 ± 0.6 kg/m3
- mass density (353.15 K, 10000 kPa): 838 ± 0.6 kg/m3
- mass density (353.15 K, 20000 kPa): 845.1 ± 0.6 kg/m3
- mass density (353.15 K, 30000 kPa): 851.5 ± 0.6 kg/m3
- mass density (353.15 K, 40000 kPa): 857.5 ± 0.7 kg/m3
- mass density (353.15 K, 50000 kPa): 863.3 ± 0.7 kg/m3
- mass density (353.15 K, 60000 kPa): 868.7 ± 0.7 kg/m3
- mass density (353.15 K, 70000 kPa): 873.8 ± 0.7 kg/m3
- mass density (353.15 K, 80000 kPa): 878.7 ± 0.8 kg/m3
- mass density (353.15 K, 90000 kPa): 883.6 ± 0.8 kg/m3
- mass density (353.15 K, 100000 kPa): 888.2 ± 0.8 kg/m3
- speed of sound (363.15 K, 101.3 kPa): 1170.9 ± 2.7 m/s
- mass density (363.15 K, 101.3 kPa): 823.2 ± 0.6 kg/m3
- speed of sound (363.15 K, 10000 kPa): 1228.2 ± 2.8 m/s
- mass density (363.15 K, 10000 kPa): 831.3 ± 0.6 kg/m3
- speed of sound (363.15 K, 20000 kPa): 1280.6 ± 2.9 m/s
- mass density (363.15 K, 20000 kPa): 838.7 ± 0.6 kg/m3
- speed of sound (363.15 K, 30000 kPa): 1329.3 ± 3 m/s
- mass density (363.15 K, 30000 kPa): 845.5 ± 0.6 kg/m3
- speed of sound (363.15 K, 40000 kPa): 1374 ± 3 m/s
- mass density (363.15 K, 40000 kPa): 851.8 ± 0.7 kg/m3
- speed of sound (363.15 K, 50000 kPa): 1414.4 ± 3.1 m/s
- mass density (363.15 K, 50000 kPa): 857.7 ± 0.7 kg/m3
- speed of sound (363.15 K, 60000 kPa): 1454.6 ± 3.2 m/s
- mass density (363.15 K, 60000 kPa): 863.1 ± 0.7 kg/m3
- speed of sound (363.15 K, 70000 kPa): 1492.2 ± 3.3 m/s
- mass density (363.15 K, 70000 kPa): 868.4 ± 0.7 kg/m3
- speed of sound (363.15 K, 80000 kPa): 1527.5 ± 3.3 m/s
- mass density (363.15 K, 80000 kPa): 873.3 ± 0.8 kg/m3
- speed of sound (363.15 K, 90000 kPa): 1563.5 ± 3.4 m/s
- mass density (363.15 K, 90000 kPa): 878.1 ± 0.8 kg/m3
- speed of sound (363.15 K, 100000 kPa): 1597.2 ± 5 m/s
- mass density (363.15 K, 100000 kPa): 882.9 ± 0.8 kg/m3
- speed of sound (363.15 K, 110000 kPa): 1629.1 ± 5.1 m/s
- speed of sound (363.15 K, 120000 kPa): 1659.3 ± 5.2 m/s
- speed of sound (363.15 K, 130000 kPa): 1687.5 ± 5.3 m/s
- speed of sound (363.15 K, 140000 kPa): 1715.4 ± 5.3 m/s
- speed of sound (363.15 K, 150000 kPa): 1741.8 ± 5.4 m/s
- speed of sound (363.15 K, 160000 kPa): 1766.9 ± 5.5 m/s
- speed of sound (363.15 K, 170000 kPa): 1793.1 ± 5.6 m/s
- speed of sound (363.15 K, 180000 kPa): 1817.7 ± 5.6 m/s
- speed of sound (363.15 K, 190000 kPa): 1841.2 ± 5.7 m/s
- speed of sound (363.15 K, 200000 kPa): 1864.9 ± 5.8 m/s
- mass density (373.15 K, 101.3 kPa): 815.8 ± 0.6 kg/m3
- mass density (373.15 K, 10000 kPa): 824.2 ± 0.6 kg/m3
- mass density (373.15 K, 20000 kPa): 832 ± 0.6 kg/m3
- mass density (373.15 K, 30000 kPa): 839.1 ± 0.6 kg/m3
- mass density (373.15 K, 40000 kPa): 845.7 ± 0.7 kg/m3
- mass density (373.15 K, 50000 kPa): 851.8 ± 0.7 kg/m3
- mass density (373.15 K, 60000 kPa): 857.5 ± 0.7 kg/m3
- mass density (373.15 K, 70000 kPa): 862.9 ± 0.8 kg/m3
- mass density (373.15 K, 80000 kPa): 868.2 ± 0.8 kg/m3
- mass density (373.15 K, 90000 kPa): 873 ± 0.8 kg/m3
- mass density (373.15 K, 100000 kPa): 878.1 ± 0.8 kg/m3
- speed of sound (383.15 K, 101.3 kPa): 1108.9 ± 2.6 m/s
- mass density (383.15 K, 101.3 kPa): 808.4 ± 0.6 kg/m3
- speed of sound (383.15 K, 10000 kPa): 1170.4 ± 2.7 m/s
- mass density (383.15 K, 10000 kPa): 817.4 ± 0.6 kg/m3
- speed of sound (383.15 K, 20000 kPa): 1226.5 ± 2.8 m/s
- mass density (383.15 K, 20000 kPa): 825.5 ± 0.6 kg/m3
- speed of sound (383.15 K, 30000 kPa): 1277.8 ± 2.9 m/s
- mass density (383.15 K, 30000 kPa): 832.7 ± 0.7 kg/m3
- speed of sound (383.15 K, 40000 kPa): 1324.6 ± 2.9 m/s
- mass density (383.15 K, 40000 kPa): 839.5 ± 0.7 kg/m3
- speed of sound (383.15 K, 50000 kPa): 1367.4 ± 3 m/s
- mass density (383.15 K, 50000 kPa): 845.9 ± 0.7 kg/m3
- speed of sound (383.15 K, 60000 kPa): 1407.7 ± 3.1 m/s
- mass density (383.15 K, 60000 kPa): 851.8 ± 0.7 kg/m3
- speed of sound (383.15 K, 70000 kPa): 1446.1 ± 3.2 m/s
- mass density (383.15 K, 70000 kPa): 857.5 ± 0.8 kg/m3
- speed of sound (383.15 K, 80000 kPa): 1481.7 ± 3.2 m/s
- mass density (383.15 K, 80000 kPa): 862.8 ± 0.8 kg/m3
- speed of sound (383.15 K, 90000 kPa): 1516.9 ± 3.3 m/s
- mass density (383.15 K, 90000 kPa): 867.9 ± 0.8 kg/m3
- speed of sound (383.15 K, 100000 kPa): 1550.2 ± 4.9 m/s
- mass density (383.15 K, 100000 kPa): 873.2 ± 0.8 kg/m3
- speed of sound (383.15 K, 110000 kPa): 1583.4 ± 5 m/s
- speed of sound (383.15 K, 120000 kPa): 1615.8 ± 5.1 m/s
- speed of sound (383.15 K, 130000 kPa): 1645.9 ± 5.1 m/s
- speed of sound (383.15 K, 140000 kPa): 1674.2 ± 5.2 m/s
- speed of sound (383.15 K, 150000 kPa): 1701.5 ± 5.3 m/s
- speed of sound (383.15 K, 160000 kPa): 1729.4 ± 5.4 m/s
- speed of sound (383.15 K, 170000 kPa): 1755.3 ± 5.5 m/s
- speed of sound (383.15 K, 180000 kPa): 1781.4 ± 5.5 m/s
- speed of sound (383.15 K, 190000 kPa): 1805.7 ± 5.6 m/s
- speed of sound (383.15 K, 200000 kPa): 1828.3 ± 5.7 m/s
- speed of sound (393.15 K, 101.3 kPa): 1078.5 ± 2.5 m/s
- mass density (393.15 K, 101.3 kPa): 800.8 ± 0.6 kg/m3
- speed of sound (393.15 K, 10000 kPa): 1142.4 ± 2.6 m/s
- mass density (393.15 K, 10000 kPa): 810.2 ± 0.6 kg/m3
- speed of sound (393.15 K, 20000 kPa): 1200 ± 2.7 m/s
- mass density (393.15 K, 20000 kPa): 818.5 ± 0.6 kg/m3
- speed of sound (393.15 K, 30000 kPa): 1252 ± 2.8 m/s
- mass density (393.15 K, 30000 kPa): 826.2 ± 0.7 kg/m3
- speed of sound (393.15 K, 40000 kPa): 1299.9 ± 2.9 m/s
- mass density (393.15 K, 40000 kPa): 833.2 ± 0.7 kg/m3
- speed of sound (393.15 K, 50000 kPa): 1343.8 ± 3 m/s
- mass density (393.15 K, 50000 kPa): 839.6 ± 0.7 kg/m3
- speed of sound (393.15 K, 60000 kPa): 1384.5 ± 3 m/s
- mass density (393.15 K, 60000 kPa): 845.7 ± 0.7 kg/m3
- speed of sound (393.15 K, 70000 kPa): 1423.6 ± 3.1 m/s
- mass density (393.15 K, 70000 kPa): 851.7 ± 0.8 kg/m3
- speed of sound (393.15 K, 80000 kPa): 1460.2 ± 3.2 m/s
- mass density (393.15 K, 80000 kPa): 857.2 ± 0.8 kg/m3
- speed of sound (393.15 K, 90000 kPa): 1495.7 ± 3.3 m/s
- mass density (393.15 K, 90000 kPa): 862.4 ± 0.8 kg/m3
- speed of sound (393.15 K, 100000 kPa): 1529.7 ± 4.8 m/s
- mass density (393.15 K, 100000 kPa): 867.6 ± 0.9 kg/m3
- speed of sound (393.15 K, 110000 kPa): 1562.8 ± 4.9 m/s
- speed of sound (393.15 K, 120000 kPa): 1593.9 ± 5 m/s
- speed of sound (393.15 K, 130000 kPa): 1624.5 ± 5.1 m/s
- speed of sound (393.15 K, 140000 kPa): 1654.6 ± 5.2 m/s
- speed of sound (393.15 K, 150000 kPa): 1683 ± 5.2 m/s
- speed of sound (393.15 K, 160000 kPa): 1710.3 ± 5.3 m/s
- speed of sound (393.15 K, 170000 kPa): 1736.2 ± 5.4 m/s
- speed of sound (393.15 K, 180000 kPa): 1761.2 ± 5.5 m/s
- speed of sound (393.15 K, 190000 kPa): 1785.3 ± 5.5 m/s
- speed of sound (393.15 K, 200000 kPa): 1809.7 ± 5.6 m/s
